{
  "source": "paper PMC9346598",
  "about": "(The Journal of Poultry Science, 2022)",
  "key": {"chicken GPR120 (cGPR120) [1]": {"molecular_target": "T1, chicken GPR120 (cGPR120) (Gallus gallus, UniProt A0A8V0ZCZ6)", "T1 sequence (A0A8V0ZCZ6 1-362)": "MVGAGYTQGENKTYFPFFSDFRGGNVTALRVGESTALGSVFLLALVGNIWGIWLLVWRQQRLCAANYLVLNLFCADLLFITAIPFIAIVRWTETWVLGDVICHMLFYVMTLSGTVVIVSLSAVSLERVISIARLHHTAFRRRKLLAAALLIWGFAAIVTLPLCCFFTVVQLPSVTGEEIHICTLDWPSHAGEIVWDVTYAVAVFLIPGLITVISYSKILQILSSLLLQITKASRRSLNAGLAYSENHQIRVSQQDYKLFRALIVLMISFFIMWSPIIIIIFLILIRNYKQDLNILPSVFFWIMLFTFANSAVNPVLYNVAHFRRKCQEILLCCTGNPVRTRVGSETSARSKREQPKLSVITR", "test": "Fura-2 Ca2+ imaging in transfected HEK293T cells, Hill fit", "format": "cell-based"}, "chicken GPR120 (cGPR120) [2]": {"molecular_target": "T1, chicken GPR120 (cGPR120)", "test": "Fura-2 Ca2+ imaging in transfected HEK293T cells, Hill fit", "format": "cell-based", "conditions": "agonist, pH 7.4, about 37 C"}},
  "data": [
    {"molecule": "CCCCC/C=C\\C/C=C\\C/C=C\\C/C=C\\CCCC(=O)O", "note": "[AA, arachidonic acid]", "values": [
      {"measurement": "EC50", "setting": "chicken GPR120 (cGPR120) [1]", "value": 1040, "unit": "µM"}
    ]},
    {"molecule": "CC/C=C\\C/C=C\\C/C=C\\C/C=C\\C/C=C\\C/C=C\\CCC(=O)O", "note": "[DHA, docosahexaenoic acid]", "values": [
      {"measurement": "Fura-2 Ca2+ imaging in transfected HEK293T cells, Hill fit", "setting": "chicken GPR120 (cGPR120) [2]; 0.1-3 mmol/L in well, stock in ethanol", "value": "EPA and DHA activated cGPR120 in a dose-dependent manner"}
    ]},
    {"molecule": "CC/C=C\\C/C=C\\C/C=C\\C/C=C\\C/C=C\\CCCC(=O)O", "note": "[EPA, eicosapentaenoic acid]", "values": [
      {"measurement": "Fura-2 Ca2+ imaging in transfected HEK293T cells, Hill fit", "setting": "chicken GPR120 (cGPR120) [2]; 0.1-7 mmol/L in well, stock in ethanol", "value": "EPA and DHA activated cGPR120 in a dose-dependent manner"}
    ]},
    {"molecule": "CCCCC/C=C\\C/C=C\\CCCCCCCC(=O)O", "note": "[LA, linoleic acid]", "values": [
      {"measurement": "Fura-2 Ca2+ imaging in transfected HEK293T cells, Hill fit", "setting": "chicken GPR120 (cGPR120) [2]; 1-10 mmol/L in well, stock in DMSO", "value": "cGPR120 cells were activated in a dose-dependent manner by LA"}
    ]}
  ]
}
